Drawing on patent publication US10941152B2, “Pyrazole compounds as modulators of FSHR and uses thereof” (TOCOPHERX, INC., priority 2014, dated 2021), this text covers EC50 for 19 molecules.

The target of one experiment is T1, FSHR (Homo sapiens, UniProt P23945).
T1 construct: expressed in transfected cells; host or cells: CHO (Cho-FSHR-LUC-1-1-43)
T1 sequence (P23945 18-695): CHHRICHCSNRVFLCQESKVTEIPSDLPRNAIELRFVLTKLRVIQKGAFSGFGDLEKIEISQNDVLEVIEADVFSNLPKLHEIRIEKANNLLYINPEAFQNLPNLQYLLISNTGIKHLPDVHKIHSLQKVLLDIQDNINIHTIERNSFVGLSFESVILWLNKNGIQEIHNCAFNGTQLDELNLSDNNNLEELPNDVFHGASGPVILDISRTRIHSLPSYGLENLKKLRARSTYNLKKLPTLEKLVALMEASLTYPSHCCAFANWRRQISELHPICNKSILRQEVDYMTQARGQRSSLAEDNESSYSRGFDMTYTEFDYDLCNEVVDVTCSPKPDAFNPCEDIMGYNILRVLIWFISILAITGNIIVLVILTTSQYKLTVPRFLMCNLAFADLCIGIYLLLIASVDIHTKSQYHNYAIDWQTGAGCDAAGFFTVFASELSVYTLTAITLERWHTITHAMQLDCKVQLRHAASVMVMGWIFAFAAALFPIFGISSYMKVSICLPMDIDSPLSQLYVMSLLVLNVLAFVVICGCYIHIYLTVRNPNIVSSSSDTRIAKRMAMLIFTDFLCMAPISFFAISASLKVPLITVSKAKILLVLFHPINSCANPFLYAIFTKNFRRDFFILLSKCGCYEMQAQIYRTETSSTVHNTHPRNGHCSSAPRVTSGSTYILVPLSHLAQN
The experiment in a line: EC50 of cyclic AMP production in CHO FSHR cells + EC20 FSH (Assay A). In kind it is cell-based. Conditions: cyclic AMP production in CHO FSHR cells + EC20 FSH (0.265 pM), HTRF. The procedure, abridged:
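cAMP was detected by HTRF as the 665/620 nm ratio. The CHO-FSHR cells had first been exposed for 1 h at 37° C to test compound together with 0.265 pM FSH (EC20) and 200 μM IBMX. Responses are given as percent of the FSH standard maximum.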
(TR-FRET usually uses a lanthanide donor and a delayed reading to cut background.)

In experiment [1] the target is T2, follicle-stimulating hormone (FSH) receptor (Rattus norvegicus, UniProt P20395).
T2 construct: endogenous in cells; host or cells: rat granulosa cells
T2 sequence (P20395 18-692): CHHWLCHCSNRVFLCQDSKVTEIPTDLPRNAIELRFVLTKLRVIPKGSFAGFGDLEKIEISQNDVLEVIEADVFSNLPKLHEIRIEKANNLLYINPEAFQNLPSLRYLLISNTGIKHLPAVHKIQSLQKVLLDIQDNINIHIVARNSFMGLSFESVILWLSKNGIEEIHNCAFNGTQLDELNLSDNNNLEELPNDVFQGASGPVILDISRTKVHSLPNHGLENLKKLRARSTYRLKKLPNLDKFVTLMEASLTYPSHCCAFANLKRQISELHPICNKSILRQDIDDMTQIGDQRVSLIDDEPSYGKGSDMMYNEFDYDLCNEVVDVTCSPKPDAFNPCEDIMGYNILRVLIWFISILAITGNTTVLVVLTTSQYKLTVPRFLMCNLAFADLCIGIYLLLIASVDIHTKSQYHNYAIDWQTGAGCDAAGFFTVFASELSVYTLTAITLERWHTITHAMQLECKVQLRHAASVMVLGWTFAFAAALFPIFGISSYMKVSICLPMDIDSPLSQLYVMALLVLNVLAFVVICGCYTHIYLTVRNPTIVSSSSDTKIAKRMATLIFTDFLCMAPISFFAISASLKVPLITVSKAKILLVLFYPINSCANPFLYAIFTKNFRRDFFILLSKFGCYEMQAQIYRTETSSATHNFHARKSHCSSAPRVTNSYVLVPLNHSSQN
The experiment in a line: Rat granulosa EC50 FSH (Assay B). In kind it is cell-based. How it is done:
Example 25. Rat granulosa EC50 FSH (Assay B)
The assay was performed pursuant to the teaching of Yanofsky et al. (2006) Allosteric activation of the follicle-stimulating hormone (FSH) receptor by selective, nonpeptide agonists (JBC 281(19): 13226-13233, which is incorporated by reference in the disclosure of the invention).

SMILES strings stand for the structures. A value given as a limit tells only on which side of the number the result lay.

A word on the EC50: it is the concentration at which the effect is half-maximal. With `COc1cc2c(cc1-c1cncc(C(N)=O)c1)-c1c(c(C(=O)N3CCC(O)CC3(C)C)nn1-c1cc(F)cc(F)c1)CO2` (centres unmarked) [Compound 162], the EC50 on FSHR is under 10 nM; in experiment [1], 101 to 500 nM.
Consider `COc1cc2c(cc1-c1cc(C)cnc1F)-c1c(c(C(=O)N(C)C(C)(C)C)nn1-c1ccsc1)CO2` [Compound 62, N-tert-butyl-8-(2-fluoro-5-methylpyridin-3-yl)-7-methoxy-N-methyl-1-(thiophen-3-yl)-1,4-dihydrochromeno[4,3-c]pyrazole-3-carboxamide], for which the figures for the EC50 (on FSHR; in experiment [1]) were under 10 nM and 10 to 100 nM, respectively.
In the same order, the values of `COc1cc2c(cc1-c1ccn(C)n1)-c1c(c(C(=O)N(C)C(C)(C)C)nn1-c1cc(C)cc(Cl)c1)CO2` [Compound 30, N-tert-butyl-1-(3-chloro-5-methylphenyl)-7-methoxy-N-methyl-8-(1-methyl-1H-pyrazol-3-yl)-1,4-dihydrochromeno[4,3-c]pyrazole-3-carboxamide] are 101 to 500 nM and 101 to 500 nM.
For `COc1cc2c(cc1-c1cncc(C(N)=O)c1)-c1c(c(C(=O)N(C)C(C)(C)C#N)nn1-c1cc(F)cc(Cl)c1)CO2` [Compound 110, 8-(5-carbamoylpyridin-3-yl)-1-(3-chloro-5-fluorophenyl)-N-(2-cyanopropan-2-yl)-7-methoxy-N-methyl-1,4-dihydrochromeno[4,3-c]pyrazole-3-carboxamide], in that order: under 10 nM and 10 to 100 nM.
In the same order, the values of `COc1cc(F)cc(-n2nc(C(=O)N3CCOCC3(C)C)c3c2-c2cc(-c4ccn(C)n4)c(OC)cc2OC3)c1` [Compound 53, (3,3-dimethylmorpholino)(1-(3-fluoro-5-methoxyphenyl)-7-methoxy-8-(1-methyl-1H-pyrazol-3-yl)-1,4-dihydrochromeno[4,3-c]pyrazol-3-yl)methanone] are 10 to 100 nM and 101 to 500 nM.
On to `COc1cc(OC)cc(-n2nc(C(=O)N3CC[S+]([O-])CC3(C)C)c3c2-c2cc(-c4ccccn4)c(OC)cc2OC3)c1` (centres unmarked) [Compound 41, (1-(3,5-dimethoxyphenyl)-7-methoxy-8-(pyridin-2-yl)-1,4-dihydrochromeno[4,3-c]pyrazol-3-yl)(S-oxo-3,3-dimethylthiomorpholino)methanone], for which the EC50 on FSHR is 10 to 100 nM; in experiment [1], 101 to 500 nM.
In the same order, the values of `COc1cc2c(cc1-c1ncnn1C)-c1c(c(C(=O)N(C)C(C)(C)C)nn1-c1ccsc1)CO2` [Compound 208] are 10 to 100 nM and over 500 nM.
For `COc1cc2c(cc1-c1cnn(CC(N)=O)c1)-c1c(c(C(=O)N3CC[S+]([O-])CC3(C)C)nn1-c1cc(F)cc(F)c1)CO2` (centres unmarked) [Compound 71], the EC50 was 10 to 100 nM on FSHR and 101 to 500 nM in experiment [1].
For `COc1cc2c(cc1-c1cccnc1F)-c1c(c(C(=O)N(CCO)C(C)(C)C)nn1-c1cc(Cl)cc(Cl)c1)CO2` [Compound 123, N-tert-butyl-1-(3,5-dichlorophenyl)-8-(2-fluoropyridin-3-yl)-N-(2-hydroxyethyl)-7-methoxy-1,4-dihydrochromeno[4,3-c]pyrazole-3-carboxamide], in that order: under 10 nM and 10 to 100 nM.
For `COc1cc2c(cc1-c1ccn(C)n1)-c1c(c(C(=O)N(C)C(C)(C)C)nn1-c1cc(Cl)cc(C(F)(F)F)c1)CO2` [Compound 64, N-tert-butyl-1-(3-chloro-5-(trifluoromethyl)phenyl)-7-methoxy-N-methyl-8-(1-methyl-1H-pyrazol-3-yl)-1,4-dihydrochromeno[4,3-c]pyrazole-3-carboxamide], in that order: 10 to 100 nM and 101 to 500 nM.
Consider `COc1cc2c(cc1-c1cc(C(N)=O)c[n+]([O-])c1)-c1c(c(C(=O)N3CCOCC3(C)C)nn1-c1cc(Cl)cc(Cl)c1)CO2` [Compound 174, 3-carbamoyl-5-(1-(3,5-dichlorophenyl)-3-(3,3-dimethylmorpholine-4-carbonyl)-7-methoxy-1,4-dihydrochromeno[4,3-c]pyrazol-8-yl)pyridine 1-oxide], for which the EC50 at FSHR is under 10 nM; in experiment [1] it was 10 to 100 nM.
For `COc1cc2c(cc1-c1cnc(N)c(C)c1)-c1c(c(C(=O)N(C)C(C)(C)C)nn1-c1cc(Cl)cc(Cl)c1)CO2` [Compound 17, 8-(6-amino-5-methylpyridin-3-yl)-N-tert-butyl-1-(3,5-dichlorophenyl)-7-methoxy-N-methyl-1,4-dihydrochromeno[4,3-c]pyrazole-3-carboxamide], in that order: under 10 nM and 101 to 500 nM.
With `COc1cc(OC)cc(-n2nc(C(=O)N(C)C(C)(C)CCO)c3c2-c2cc(-c4cccnc4F)c(OC)cc2OC3)c1` [Compound 135, 1-(3,5-dimethoxyphenyl)-8-(2-fluoropyridin-3-yl)-N-(4-hydroxy-2-methylbutan-2-yl)-7-methoxy-N-methyl-1,4-dihydrochromeno[4,3-c]pyrazole-3-carboxamide], the EC50 at FSHR is under 10 nM; in experiment [1], 10 to 100 nM.
As to `COc1cc2c(cc1-c1cccc(CO)c1F)-c1c(c(C(=O)N(C)C(C)(C)C)nn1-c1cc(Cl)cc(Cl)c1)CO2` [Compound 195, N-tert-butyl-1-(3,5-dichlorophenyl)-8-(2-fluoro-3-(hydroxymethyl)phenyl)-7-methoxy-N-methyl-1,4-dihydrochromeno[4,3-c]pyrazole-3-carboxamide], the EC50 (at FSHR; in experiment [1]) was 10 to 100 nM each time.
Regarding `COc1cc2c(cc1-c1cccc(C#N)c1)-c1c(c(C(=O)N(C)C(C)(C)C)nn1-c1cc(Cl)cc(Cl)c1)CO2` [Compound 18, N-tert-butyl-8-(3-cyanophenyl)-1-(3,5-dichlorophenyl)-7-methoxy-N-methyl-1,4-dihydrochromeno[4,3-c]pyrazole-3-carboxamide], the results for the EC50 (on FSHR; in experiment [1]) were 10 to 100 nM and 101 to 500 nM, respectively.
For `COc1cc2c(cc1-c1ccn(C)n1)-c1c(c(C(=O)N3CCN(C#N)CC3(C)C)nn1-c1ccsc1)CO2` [Compound 184, 4-(7-methoxy-8-(1-methyl-1H-pyrazol-3-yl)-1-(thiophen-3-yl)-1,4-dihydrochromeno[4,3-c]pyrazole-3-carbonyl)-3,3-dimethylpiperazine-1-carbonitrile], in that order: under 10 nM and 10 to 100 nM.
For the molecule `COc1cc2c(cc1-c1ccn(C)n1)-c1c(c(C(=O)N3CCC(O)CC3(C)C)nn1-c1cc(Cl)cc(Cl)c1)CO2` (centres unmarked) [Compound 7, (1-(3,5-dichlorophenyl)-7-methoxy-8-(1-methyl-1H-pyrazol-3-yl)-1,4-dihydrochromeno[4,3-c]pyrazol-3-yl)(4-hydroxy-2,2-dimethylpiperidin-1-yl)methanone], the EC50 on FSHR is 10 to 100 nM; in experiment [1] it was 101 to 500 nM.
In the same order, the values of `COc1cc(Cl)cc(-n2nc(C(=O)N(C)C(C)(C)C)c3c2-c2cc(-c4cnn(CC(=O)O)c4)c(OC)cc2OC3)c1` [Compound 85, 2-(4-(3-(tert-butyl(methyl)carbamoyl)-1-(3-chloro-5-methoxyphenyl)-7-methoxy-1,4-dihydrochromeno[4,3-c]pyrazol-8-yl)-1H-pyrazol-1-yl)acetic acid] are 10 to 100 nM and over 500 nM.
For `COc1cc(F)cc(-n2nc(C(=O)N3CCOCC3(C)C)c3c2-c2cc(-c4cnn(CCO)c4)c(OC)cc2OC3)c1` [Compound 74, (3,3-dimethylmorpholino)(1-(3-fluoro-5-methoxyphenyl)-8-(1-(2-hydroxyethyl)-1H-pyrazol-4-yl)-7-methoxy-1,4-dihydrochromeno[4,3-c]pyrazol-3-yl)methanone], in that order: under 10 nM and 10 to 100 nM.
